Like-named read-outs stand apart in the source and are kept apart here.
Tests used:
[1] = target: T1, hERG (Homo sapiens, UniProt Q12809); assay: hERG test (Predictor hERG Fluorescence Polarization Assay Kit); format: binding
T1 construct: purchased ThermoFisher Scientific PV5365
Description: Predictor™ hERG Fluorescence Polarization Assay Kit (ThermoFisher Scientific, PV5365).
The procedures in the kit instructions were followed: 4× Predictor™ hERG Tracer Red, 4× E-4031, and 4× test substance solutions (final assay concentration: 10 µM) were prepared in advance. 5 µL Predictor™ hERG FP Assay Buffer and 5 µL Predictor™ hERG Membrane were added sequentially to the Assay Blank group in a 384-well plate. 2.5 µL Predictor™ hERG FP Assay Buffer, 2.5 µL of 4× E-4031, and 2.5 µL of 4× test substance were added to the negative control group, the positive control group, and the test substance group, respectively, and then 5 µL Predictor™ hERG Membrane and 2.5 µL of 4× Predictor™ hERG Tracer Red were sequentially added. The total volume of the experimental system was 10 µL, and three duplicate wells were set for each group. After loading, the plate was gently tapped to mix well and incubated at room temperature (25 °C) in the dark for 3.5 h. After the incubation was completed, the fluorescence polarization value mP was measured on a microplate reader, and G Factor was 2.14.
The inhibition rate of the test substance was calculated using the following formula: [formula]

[2] = target: T2, CYP450 enzyme 3A4 (Homo sapiens, UniProt P08684); assay: CYP inhibition test in human liver microsomes; format: in vitro ADME; details: human liver microsomes 0.1 mg/mL
T2 construct: Liver microsomes (purchased from BIOIVT, Cat. No.: X008070); tissue BIOIVT X008070; host or cells: human liver microsomes
T2 sequence (P08684 whole entry): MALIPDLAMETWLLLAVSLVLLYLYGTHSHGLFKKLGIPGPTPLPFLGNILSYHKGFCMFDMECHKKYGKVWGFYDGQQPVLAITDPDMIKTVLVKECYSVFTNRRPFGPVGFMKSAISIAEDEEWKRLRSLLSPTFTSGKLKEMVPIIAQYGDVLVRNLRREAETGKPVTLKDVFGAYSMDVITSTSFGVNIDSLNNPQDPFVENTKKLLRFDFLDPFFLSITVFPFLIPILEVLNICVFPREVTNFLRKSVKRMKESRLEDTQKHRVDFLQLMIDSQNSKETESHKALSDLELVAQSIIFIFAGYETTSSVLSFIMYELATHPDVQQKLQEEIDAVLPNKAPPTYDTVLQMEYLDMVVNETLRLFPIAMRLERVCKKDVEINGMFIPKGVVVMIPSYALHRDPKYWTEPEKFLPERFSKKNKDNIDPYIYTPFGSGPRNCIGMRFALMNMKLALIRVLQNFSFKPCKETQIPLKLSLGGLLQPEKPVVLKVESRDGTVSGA
Description: Experimental materials: human liver microsomes (purchased from BIOIVT);
PBS: 0.1 M KH2PO4 and K2HPO4 buffers, pH 7.4.
MgCl2: a certain amount of MgCl2 was weighed out and prepared into a 20 mM MgCl2 solution with PBS.
NADPH (Chinese name: reduced nicotinamide adenine dinucleotide phosphate, purchased from Sigma, Cat. No.: 481973-500 mg): a certain amount of NADPH was weighed out and a 5 mM solution of NADPH was prepared with a 20 mM MgCl2 solution, and the final incubation concentration was 1 mM.
Compounds: 3 mM, 1 mM, 0.3 mM, 0.1 mM, 0.03 mM, 0.01 mM, and 0 mM solutions of the test compounds were prepared with a DMSO-methanol (v:v = 1:9) solution, and the final incubation concentrations were 30 µM, 10 µM, 3 µM, 1 µM, 0.3 µM, 0.1 µM, and 0 µM. 30 µM, 10 µM, 3 µM, 1 µM, 0.3 µM, and 0 µM solutions of the positive compound (ketoconazole) were prepared with a DMSO-methanol (v:v = 1:9) solution, and the final incubation concentrations were 0.3 µM, 0.1 µM, 0.03 µM, 0.01 µM, 0.003 µM, and 0 µM.
Substrate working solutions: 200 µM and 15 µM solutions of substrate working solutions (testosterone and midazolam) were prepared with PBS, separately, and the final incubation concentrations were 40 µM and 3 µM.
Liver microsomes (purchased from BIOIVT, Cat. No.: X008070): the liver microsomes were diluted to […] with PBS, and the final incubation concentration was 0.1 mg/mL.
The prepared test compounds or positive compounds were added to a 96-well plate, and then the prepared human liver microsome working solution and substrate working solution were added. The mixture was mixed well. The mixture was pre-incubated in a thermostat incubator at 37 °C for 5 min, and then the prepared NADPH was added to start the reaction. The mixture was incubated for 5 min or 10 min. After the incubation was completed, a pre-cooled acetonitrile solution containing an internal standard was added to terminate the reaction. After protein precipitation, the mixture was vortexed for 5 min with shaking and then centrifuged at 4000 rpm for 10 min. The supernatant was collected and added to the 96-well plate. The content (peak concentration ratio) of the metabolites of the substrate was determined by an LC-MS/MS method. The residual activity and the half maximal inhibitory concentration (IC50) of the enzyme were calculated based on the detected content.
Percentage of remaining enzyme activity: The activity of each subtype of CYP450 enzyme was expressed as the amount of metabolite produced, and the percentage of remaining enzyme activity was calculated as follows: [formula]
The concentrations of the test substances and the corresponding residual activity percentages were fitted using a nonlinear model of Excel software, and the concentration of the test substances at which 50% inhibition of metabolite production was achieved was the IC50 value.

[3] = PK experiment in rats; format: in vivo; details: rat; SD male rats, PO 10 mg/kg, vehicle 0.5% MC/0.2% Tween 80, plasma
Description: The samples were analyzed by LC-MS/MS. […] Table 6. Pharmacokinetic parameters for rats

[4] = system: gene-editing MTAP-/- human colon cancer cell strain HCT116; assay: Efficacy in MTAP-/- HCT116 subcutaneous xenograft mouse model; format: in vivo, Balb/c nude mice; details: 50 mg/kg, PO, qd, 28 days
Description: The blank group contained 40% PEG400 normal saline with 2% DMSO. […] The test substance was intragastrically administered at 10 mg/kg once daily, and MRTX1719 was intragastrically administered at 50 mg/kg once daily. Model control: The vehicle (2% DMSO + 40% PEG400 + 58% normal saline) was intragastrically administered at a dose of 10 mL/kg once daily. Administration was performed for 28 days in total. […] The mice were euthanized on the day when the last administration was completed. […] In the formula, VTt represents the tumor volume of the treatment group at each measurement, and VT0 represents the tumor volume measured when the treatment group is grouped; VCt represents the tumor volume of the vehicle group at each measurement (same as VTt), and VC0 represents the tumor volume measured when the vehicle group is grouped. Data were analyzed using GraphPad Prism 9.0 software and expressed as Mean ± SEM (standard error). Pairwise comparisons between each administration group and the control group were performed using one-way analysis of variance (ANOVA). Variance homogeneity was determined using the Brown-Forsythe method, and variance heterogeneity was determined using the Dunnett's T3 method. Table 7. Efficacy evaluation in HCT116 subcutaneous xenograft mouse model

[5] = system: human large cell lung cancer cell line LU99; assay: Efficacy in LU99 xenograft mouse model; format: in vivo, Balb/c nude mice; details: 50 mg/kg, PO, qd, 28 days
Description: The human large cell lung cancer cell line LU99 was purchased from Nanjing Cobioer Biosciences Co., Ltd. (CBP61512) and cultured in RPMI-1640 medium (Gibco) containing 10% fetal bovine serum (Gibco); the test substances were prepared into suspensions at concentrations of 0.3 mg/mL, 1 mg/mL, and 5 mg/mL using a 0.5% aqueous MC solution containing 0.2% Tween 80. Reference Example 6 (MRTX1719) was prepared into a 5 mg/mL clear solution using 40% PEG400 normal saline containing 2% DMSO.
LU99 cells in the logarithmic growth phase were digested, collected, and counted, and the cell density was adjusted to 2 × 10^7 cells/mL using a 1:1 serum-free medium and matrigel (Corning). 18-20 g of Balb/c nude mice (Beijing Huafukang Biotechnology Co., Ltd.) were inoculated subcutaneously with 100 µL of cell suspension per mouse. On day 12 after inoculation, animals with a mean tumor volume of 116 mm^3 were randomly grouped, with 7 animals in each group. The test substances were intragastrically administered at 3 mg/kg, 10 mg/kg, and 50 mg/kg once daily, and MRTX1719 was intragastrically administered at 50 mg/kg once daily. A vehicle (2% DMSO + 40% PEG400 + 58% normal saline) was intragastrically administered to the blank group at a dose of 10 mL/kg once daily. Administration was performed for 28 days in total.
After the animals were inoculated with LU99 cells, the tumor volume was measured 2-3 times a week, and the tumor volume was calculated based on length × width^2 × 0.5. On the day when the last administration was completed, except for the mice with tumor regression, which were subjected to discontinuation observation, the remaining mice were euthanized.
In the formula, VTt represents the tumor volume of the treatment group at each measurement, and VT0 represents the tumor volume measured when the treatment group is grouped; VCt represents the tumor volume of the model control group at each measurement, and VC0 represents the tumor volume measured when the model control group is grouped.
Data were analyzed using GraphPad Prism 9.0 software and expressed as Mean ± SEM (standard error). Pairwise comparisons between each administration group and the model control group were performed using one-way analysis of variance (ANOVA). Variance homogeneity was determined using the Brown-Forsythe method, and variance heterogeneity was determined using the Dunnett's T3 method. Table 8. Efficacy evaluation in LU99 xenograft mouse model

[6] = PK experiment in mice; details: mouse, plasma, po, 10 mg/kg
Description: (§1) Experimental materials: the experimental animals were healthy adult female BALB/c mice (provided by Sichuan Vital River Laboratory Animal Technology Co., Ltd.).
(§2) Administration mode and sample collection in mice: BALB/c female mice received oral intragastrical administration (10 mg/kg, vehicle: 0.5% methylcellulose/0.2% Tween 80), and 60 µL of whole blood from the venous plexus of the fundus of the mice at different time points was collected at 0.25 h, 0.5 h, 1 h, 2 h, 4 h, 6 h, 8 h, and 24 h after administration and centrifuged at 4000 rpm for 6 min to collect plasma.
(§3) 10 µL of mouse plasma sample was added to 190 µL of acetonitrile solution containing an internal standard to precipitate protein. The mixture was vortexed for 10 min and centrifuged at 4000 rpm for 10 min. The supernatant was collected and added to a 96-well plate. The samples were analyzed by LC-MS/MS. The drug concentrations in the plasma of mice at different time points after intragastric administration of the example compounds were measured by an LC-MS/MS method, and the related pharmacokinetic parameters were calculated, such that the pharmacokinetic behavior of the compounds in the mice was studied, and the pharmacokinetic characteristics were evaluated.

[7] = system: wild-type HCT-116 cells; assay: Cell proliferation (MTS), wild-type HCT-116; format: cell-based; details: Homo sapiens, 240 h; wild-type HCT-116, 10 days with compound, MTS reading; read-out: IC50 HCT116 WT
Summary of the method: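 Wild-type HCT-116 cells were seeded at 100 cells/well in McCoy's 5A/10% FBS. From day 1 they were treated with compound in 3-fold dilutions (initial 20 µM, 8 points) for 10 days at 37° C. Proliferation was read by MTS on day 11, and IC50 was obtained from a four-parameter logistic fit.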

[8] = system: MTAP^-/- HCT-116 cells; assay: Cell proliferation (MTS), MTAP-/- HCT-116; format: cell-based, human
Summary of the method: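 MTAP-/- (CRISPR/Cas9 biallelic knockout) or wild-type HCT-116 cells seeded at 100 cells/well, treated next day with 8-point 3-fold dilutions (top 20 µM) for 10 days at 37 °C, 5% CO2. Viability read by MTS; IC50 from four-parameter logistic fit of inhibition rate vs log concentration.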

[9] = in vivo; details: mouse, po, 10 mg/kg
Description: as §1, §2, §3

T1 sequence (Q12809 whole entry): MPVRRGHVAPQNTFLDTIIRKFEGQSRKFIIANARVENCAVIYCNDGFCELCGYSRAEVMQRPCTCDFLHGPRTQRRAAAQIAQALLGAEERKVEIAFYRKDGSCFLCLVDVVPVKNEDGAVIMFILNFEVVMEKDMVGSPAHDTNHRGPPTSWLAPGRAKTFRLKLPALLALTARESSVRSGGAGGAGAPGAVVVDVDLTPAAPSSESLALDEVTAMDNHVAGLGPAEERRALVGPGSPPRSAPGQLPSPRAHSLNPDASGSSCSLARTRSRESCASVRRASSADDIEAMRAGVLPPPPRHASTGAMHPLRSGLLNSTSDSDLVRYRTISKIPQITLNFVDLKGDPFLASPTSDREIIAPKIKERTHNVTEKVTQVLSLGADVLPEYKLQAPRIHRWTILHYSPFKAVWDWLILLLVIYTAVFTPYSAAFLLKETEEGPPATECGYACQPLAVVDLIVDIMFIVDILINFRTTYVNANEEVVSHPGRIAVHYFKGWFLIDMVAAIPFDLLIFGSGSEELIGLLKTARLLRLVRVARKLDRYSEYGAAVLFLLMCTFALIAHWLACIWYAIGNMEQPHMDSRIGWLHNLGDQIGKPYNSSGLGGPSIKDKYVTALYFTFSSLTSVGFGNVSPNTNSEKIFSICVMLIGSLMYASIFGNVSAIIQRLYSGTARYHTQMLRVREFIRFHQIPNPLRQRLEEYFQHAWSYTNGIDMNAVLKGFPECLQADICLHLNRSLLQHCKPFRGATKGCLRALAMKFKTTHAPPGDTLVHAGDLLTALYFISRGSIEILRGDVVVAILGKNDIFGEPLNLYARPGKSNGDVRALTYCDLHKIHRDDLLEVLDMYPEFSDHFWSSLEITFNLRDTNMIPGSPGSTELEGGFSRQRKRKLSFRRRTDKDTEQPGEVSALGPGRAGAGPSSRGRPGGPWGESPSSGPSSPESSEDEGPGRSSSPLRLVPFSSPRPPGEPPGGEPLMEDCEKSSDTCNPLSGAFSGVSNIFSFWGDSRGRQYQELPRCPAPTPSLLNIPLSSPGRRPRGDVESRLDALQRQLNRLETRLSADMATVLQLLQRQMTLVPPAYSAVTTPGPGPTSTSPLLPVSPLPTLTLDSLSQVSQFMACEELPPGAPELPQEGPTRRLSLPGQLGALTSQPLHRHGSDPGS

Compound	inhibition at 3.5 h, 10 µM ([1]; herg membrane fluorescence polarization, 10 µM test substance, three duplicate wells)	IC50 ([1]; only 10 µM tested)	IC50 ([2]; substrate midazolam 3 µM, read-out: IC50 3A4-Midazolam)	IC50 ([2]; substrate testosterone 40 µM, read-out: IC50 3A4-Testosterone)	AUC(0-t) [3]	Cmax [3]	TGI [4]	Tumor volume [4]	TGI [5]	Tumor volume [5]	AUC(0-t) [6]	Cmax [6]	IC50 [7]	Selectivity ([8]; HCT116 WT IC50 relative to HCT116 MTAP-/- IC50)	IC50 ([8]; Homo sapiens, 240 h, MTAP-/- HCT-116, 10 days with compound, MTS reading, read-out: IC50 HCT116 MTAP-/-)	AUC(0-t) [9]	Cmax [9]
Cn1ncc(-c2ccc3c(=O)[nH]nc(CN)c3c2)c1-c1c(F)c(Cl)cc(OC2CC2)c1C#N (atropisomer, axis not shown) [Reference Example 6, reference compound]	77.4%	< 10000 nM	2130 nM	1950 nM	100 ± 103 ng·h/mL	107 ± 149 ng/mL	72.21%	525.74 mm^3	90.96%	279.68 mm^3	1970 ± 316 ng·h/mL	428 ± 220 ng/mL					
[2H]C([2H])([2H])N(C(=O)c1cc2c3c(c(N)nc2cc1Cl)COC3)[C@@H]1COc2cc(C#Cc3cnn(C4CC4)c3)ccc21 [Compound 86A, (S)-4-amino-7-chloro-N-(6-((1-cyclopropyl-1H-pyrazol-4-yl)ethynyl)-2,3-dihydrobenzofuran-3-yl)-N-(methyl-D3)-1,3-dihydrofuro[3,4-c]quinoline-8-carboxamide]													1080 nM	124	8.7 nM	15300 ± 2940 ng·h/mL	1480 ± 187 ng/mL

Source: patent EP4755886A1 (Chengdu Chipscreen Pharmaceutical Ltd., priority 2023, dated 2025)
